# Residues, ends and D or L forms follow the SMILES beside them.
# Experiments:
# [1] = Membrane fluidity, Laurdan generalized polarization (GP); type: physicochemical; settings: P/L molar ratio 0.5, after 10 min, 37 °C, 5 mM HEPES, 100 mM NaCl, pH 7.4
# Description: The samples were vortexed and lyophilized overnight.
# LUVs containing Laurdan were prepared to determine membrane fluidity. In order to insert Laurdan into the bilayer, it was added to lipid films before hydration. The peptide gH625 was added to LUVs at a P/L molar ratio of 0.5 and after 10 min the fluorescence spectra were recorded using a 1 cm path length quartz cell, thermostated at 25 °C or 37 °C. Spectra were corrected for the baseline signal. Laurdan emission spectra were recorded from 400 to 550 nm with λex 365 nm in the absence or presence of gH625 in 5 mM HEPES, 100 mM NaCl buffer (pH 7.4). Laurdan emission can shift from 440, in the ordered phase, to 490 in the disordered phase. The excitation generalized polarization (GP) was calculated as GP = (I440 − I490)/(I440 + I490) where I440 and I490 are the fluorescence intensities at the maximum emission wavelength in the ordered (λem 440 nm) and disordered (λem 490 nm) phases.
# LUVs fluidity before and after the addition of gH625 were obtained using the fluorescent probe Laurdan[47],[48]. […] The Generalized Polarization (GP) is a parameter commonly used to quantify the change in the lipid fluidity. […] The GP parameter allowed quantifying the effect of the peptide (Table 1). […]
# [2] = system: human neuroblastoma and glioblastoma astrocytoma; design: method as in PMID 25792823; settings: human neuroblastoma and glioblastoma astrocytoma cells; cited from earlier work
# [3] = Tryptophan fluorescence, binding isotherm and partition coefficient; type: physicochemical; settings: peptide 4 µM, λex 295 nm
# Description: Emission spectra of the tryptophan contained in the peptide (4 µM) in the absence or presence of target vesicles were recorded between 300 and 400 nm with λex 295 nm in order to determine the presence of the peptide inside the membrane. To establish the strength of peptide-lipid interaction, LUVs were added to the peptide solution (4 µM) and the fluorescence intensity was recorded as a function of the lipid/peptide molar ratio (L/P), in three to four separate experiments. The results were corrected for the dilution factor. We used an L/P ratio of 200:1. […] F∞ was obtained by extrapolation of a double reciprocal plot of the total peptide fluorescence vs the total lipid concentration in the outer leaflet. The fraction of membrane-bound peptide, fb, was determined by fb = (F − F0)/(F∞ − F0), where F represents the fluorescence of peptide after the addition of the vesicles and F0 represents the fluorescence of the unbound peptide. fb allowed us to calculate the equilibrium concentration of the free peptide in the solution, Cf, and the extent of peptide binding Xb. […]
# The presence of a tryptophan residue in the middle of the sequence of gH625, allowed the evaluation of the degree of peptide penetration into liposomes of different composition. In particular, we compared the fluorescence emission spectra in vesicles mimicking the BBB and the liver with that in buffer. […]
smiles,measurement,setting,value
CC[C@H](C)[C@H](NC(=O)[C@H](CC(C)C)NC(=O)[C@H](C)NC(=O)[C@H](CC(N)=O)NC(=O)[C@H](Cc1ccc(O)cc1)NC(=O)[C@H](Cc1c[nH]cn1)NC(=O)[C@H](C)NC(=O)[C@H](Cc1c[nH]c2ccccc12)NC(=O)[C@H](CCCNC(=N)N)NC(=O)[C@@H](NC(=O)[C@H](CC(C)C)NC(=O)[C@@H](NC(=O)[C@H](CO)NC(=O)[C@H](C)NC(=O)[C@H](CC(C)C)NC(=O)CNC(=O)[C@@H](N)Cc1c[nH]cn1)[C@@H](C)O)[C@@H](C)O)C(=O)N[C@@H](CCCNC(=N)N)C(=O)N[C@@H](C)C(=O)N[C@@H](Cc1ccccc1)C(N)=O [gH625] (H-HGLASTLTRWAHYNALIRAF-NH2),"Generalized polarization (GP) value, +gH625","[1]; Laurdan in LUVs DSPC/POPE/PI/PS/lysoPC/SM/DOPG (37/21/7/9/3/18/5), no peptide 37 °C: 0.40",0.49
same,"Generalized polarization (GP) value, +gH625","[1]; Laurdan in LUVs PI/DOPE/DPPC/PS/Chol/SM (4/23/30/8/20/15), no peptide 37 °C: 0.19",0.15
same,Percentage of uptake,[2],80–90%
same,"Tryptophan fluorescence emission (intensity increase, blue shift): penetration into bilayer",[3]; BBB mimicking LUVs vs buffer,capable of penetrating both lipid bilayers
same,"Tryptophan fluorescence emission (intensity increase, blue shift): penetration into bilayer",[3]; liver mimicking LUVs vs buffer,capable of penetrating both lipid bilayers

# From publication PMC6138628, “Enhanced uptake of gH625 by blood brain barrier compared to liver in vivo: characterization of the mechanism by an in vitro model and implications for delivery” (Scientific Reports, 2018)
